Results taken from patent US20240024281A1, “METHODS AND COMPOSITIONS FOR TREATING LIVER DISEASES” (INSTITUT NATIONAL DE LA SANTÉ ET DE LA RECHERCHE MÉDICALE, priority 2018, published 2024).
Entries after “also recorded” stand apart in the source; their conditions may differ.

Experiments:
[1] = system: liver cancer cell (HepG2, Huh7 and Hep3B); assay: Liver cancer cell proliferation; type: cell-based; conditions: for liver cancer cell proliferation and apoptosis, alone and co-treated with sorafenib (confirmation of the STF-083010 data): data not shown
Description: (§1) FIG. 3A-B: Inhibition of IRE1α RNase signalling with STF potentiates the effectiveness of Sorafenib in reducing liver cancer cell proliferation and inducing apoptosis. Effect of Sorafenib (SORA, 5 μM), STF-083010 (STF, 60 μM) and their combination on (A) liver cancer cell proliferation (HepG2, Huh7 and Hep3B) and on (B) inducing apoptosis. STF-083010 was added one hour before SORA. Stimulations were performed during 24 hours. $p<0.05 when comparing treated to untreated counterpart. Results are expressed as mean with SEM *p<0.05, **p<0.01, ***p<0.001 and ****p<0.0001.
(§2) FIG. 4: Hyperactive IRE1α RNase triggers secretion of pro-inflammatory markers. Effect of Sorafenib (SORA, […]), Ac-YVAD-CMK (YVAD, 25 μM) and their combination on liver cancer cell proliferation (HepG2) and on inducing apoptosis. Ac-YVAD-CMK (YVAD) was added one hour before SORA. Stimulations were performed during 24 hours. $p<0.05 when comparing treated to untreated counterpart. Results are expressed as mean with SEM *p<0.05, **p<0.01, ***p<0.001 and ****p<0.0001.
FIG. 5A-B: Co-treatment enhancing apoptosis via IRE1α kinase activity. Effect of Sorafenib (SORA, 5 μM), STF-083010 (STF, 60 μM) and their combination on HepG2 cells proliferation with or without (A) JNK inhibitor SP600125 (SP, 50 μM) pre-treatment or (B) Necrostatin (Nec-1, 50 μM) pre-treatment. Stimulations were performed during 24 hours. $p<0.05 when comparing treated to untreated counterpart. Results are expressed as mean with SEM *p<0.05, **p<0.01, ***p<0.001 and ****p<0.0001.

xenograft HepG2 cells = assay: Xenograft mouse model of HCC, tumor volume; type: in vivo, mice
Description: FIG. 6A-B: Inhibition of IRE1α RNase activity with STF potentiates Sorafenib action in vivo. (A) Protocol timeline for Sorafenib (30 mg/kg i.p. daily) and/or STF-083010 (30 mg/kg i.p. twice a week) injections in mice with xenograft HepG2 cells. (B) Effect of SORA, STF, and their combination on tumor volume in mice. $p<0.05 when comparing treated to untreated counterpart. Results are expressed as mean with SEM *p<0.05.

HCC cell lines = assay: Apoptosis induction in HCC cell lines; type: cell-based; conditions: 24 hours
Description: as §1, §2

IRE1α RNase activity = molecular target: T1, IRE1α RNase activity (Mus musculus, UniProt Q9EQY0); assay: IRE1α RNase signaling (XBP1 mRNA, sXBP1 protein) in primary hepatocytes from BI-1−/− or WT mice; type: cell-based; conditions: BI-1−/− primary hepatocytes; STF-083010 60 μM
T1 construct: Hepatocytes from mouse liver were isolated by a two-step collagenase procedure; endogenous in cells; host or cells: primary hepatocytes isolated from livers of BI-1−/− and WT mice
T1 sequence (Q9EQY0 21-977): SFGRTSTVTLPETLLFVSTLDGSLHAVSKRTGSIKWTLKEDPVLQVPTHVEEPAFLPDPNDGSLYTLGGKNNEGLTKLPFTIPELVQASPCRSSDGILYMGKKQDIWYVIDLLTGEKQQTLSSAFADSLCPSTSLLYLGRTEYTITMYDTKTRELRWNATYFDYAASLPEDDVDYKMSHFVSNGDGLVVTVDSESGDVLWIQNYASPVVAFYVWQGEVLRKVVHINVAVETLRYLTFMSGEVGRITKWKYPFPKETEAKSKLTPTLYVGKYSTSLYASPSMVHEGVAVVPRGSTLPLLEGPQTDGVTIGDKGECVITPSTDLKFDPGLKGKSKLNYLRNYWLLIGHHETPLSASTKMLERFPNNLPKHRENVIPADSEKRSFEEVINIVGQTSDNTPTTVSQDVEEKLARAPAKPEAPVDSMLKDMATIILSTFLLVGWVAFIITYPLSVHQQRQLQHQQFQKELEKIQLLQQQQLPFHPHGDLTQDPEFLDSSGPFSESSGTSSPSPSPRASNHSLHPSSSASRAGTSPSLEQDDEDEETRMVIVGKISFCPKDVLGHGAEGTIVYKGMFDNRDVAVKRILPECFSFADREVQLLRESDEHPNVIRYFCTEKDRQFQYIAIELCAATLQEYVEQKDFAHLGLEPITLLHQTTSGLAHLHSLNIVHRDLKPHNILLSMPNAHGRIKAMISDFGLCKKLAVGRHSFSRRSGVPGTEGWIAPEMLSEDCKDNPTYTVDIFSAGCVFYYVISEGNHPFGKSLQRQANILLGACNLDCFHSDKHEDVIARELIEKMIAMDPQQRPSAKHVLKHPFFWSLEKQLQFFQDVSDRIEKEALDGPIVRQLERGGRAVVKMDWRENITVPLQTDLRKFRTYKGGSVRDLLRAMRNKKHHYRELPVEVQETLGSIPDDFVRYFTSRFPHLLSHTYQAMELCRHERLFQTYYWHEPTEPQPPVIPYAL
Description: (§3) Total RNA was extracted from liver tissue or cells then reverse-transcribed as previously described15. Real-time quantitative PCR was performed using the ABI PRISM 7500/Step-One Fast Real Time PCR System following the manufacturer's protocols in C3M genomics facilities. See the Supporting Methods for TaqMan gene expression assays.
(§4) Total protein was isolated from snap-frozen livers or primary hepatocytes homogenized in detergent-containing buffer, normalized for protein content (40 μg/tissue sample and 20 μg/cell sample), and analyzed by SDS-PAGE (8-15% gels) immunoblotting as previously described15. Western blot analyses were performed using antibodies described in Supporting Methods and detected with an enhanced chemiluminescence method (Amersham Biosciences, Piscataway, NJ, USA). Immunoblots were scanned and the signals were quantified using ImageJ software.
Hepatocytes from mouse liver were isolated by a two-step collagenase procedure, as we described18,23 and cultured in media detailed in Supporting Methods. […] After 48 hr of transfection, cells were treated with TM (1 μg/ml) or LPS (100 ng/ml) for the determined times. […] Cell viability was determined by a colorimetric assay (MTT) detailed in Supporting Methods. […]

NLRP3 inflammasome = assay: Caspase-11 and NLRP3 overexpression in LPS-treated primary hepatocytes; type: cell-based, mouse; conditions: LPS-treated BI-1−/− primary hepatocytes; STF-083010 60 μM
Description: as §4
Hepatocytes from mouse liver were isolated by a two-step collagenase procedure, as we described18,23 and cultured in media detailed in Supporting Methods. When indicated, primary hepatocytes were transfected with Stealth siRNA (targeting BI-1, IRE1α, XBP1 or CHOP with the corresponding control of Low or Medium CG) at 30 nM using Lipofectamine RNAiMAX (ThermoFisher Scientific, Courtaboeuf, France) according to the manufacturer's instructions. After 48 hr of transfection, cells were treated with TM (1 μg/ml) or LPS (100 ng/ml) for the determined times. Primary hepatocytes isolated from the livers of BI-1−/− and WT mice were treated with TM or LPS in the presence or absence of STF-083010 (60 μM) or Ac-YVAD-CMK (25 μM). Cell viability was determined by a colorimetric assay (MTT) detailed in Supporting Methods. […]

[2] = system: primary hepatocytes isolated from the livers of BI-1−/− and WT mice; assay: Primary hepatocyte viability (MTT) with TM or LPS; type: cell-based, mouse
Description: Hepatocytes from mouse liver were isolated by a two-step collagenase procedure, as we described18,23 and cultured in media detailed in Supporting Methods. When indicated, primary hepatocytes were transfected with Stealth siRNA (targeting BI-1, IRE1α, XBP1 or CHOP with the corresponding control of Low or Medium CG) at 30 nM using Lipofectamine RNAiMAX (ThermoFisher Scientific, Courtaboeuf, France) according to the manufacturer's instructions. After 48 hr of transfection, cells were treated with TM (1 μg/ml) or LPS (100 ng/ml) for the determined times. Primary hepatocytes isolated from the livers of BI-1−/− and WT mice were treated with TM or LPS in the presence or absence of STF-083010 (60 μM) or Ac-YVAD-CMK (25 μM). Cell viability was determined by a colorimetric assay (MTT) detailed in Supporting Methods. Results are presented as a percentage of the control values.

HFD-fed BI-1−/− mice = assay: HFD- or ND-fed BI-1+/+ and BI-1−/− mice treated with STF-083010 (NASH development); type: in vivo, mouse
Description: FIG. 1A-C: Early Into HFD feeding, limiting the ER stress response by inhibiting IRE1α RNase activity protects from steatosis and hyperglycemia. Starting 2.5 months after HFD feeding, BI-1+/+ and BI-1−/− mice were treated with STF-083010 (30 mg/kg) or vehicle (NT, Kolliphor 16%) twice a week for 2 weeks before sacrifice. (A) Relative liver triglyceride levels.
(A) Protocol timeline for vehicle (NT, Kolliphor 16%) or STF-083010 (30 mg/kg) injections in HFD-fed BI-1+/+ and BI-1−/− mice. (B) qPCR analysis of hepatic genes involved in lipid synthesis and metabolism (n=3). […] (C) Blood glucose concentrations in fed BI-1+/+ and BI-1−/− mice (n=6).
All animal procedures were conducted in compliance with French guidelines for the humane care and use of experimental animals. Male mice with targeted disruption of the BI-1 gene representing BI-1+/+(WT) and BI-1−/− littermates on a C57BL/6 background were obtained from Dr. John C. Reed at the Stanford-Burnham Institute for Medical Research (La Jolla, CA, USA)17,18. Experiments conducted with 12-week old mice included: 1) Mice injected intraperitoneally with TM (1 mg/kg) or vehicle and sacrificed 48 hr after treatment (unless otherwise indicated), 2) Animals either fed a ND (A04—Safe Diet, Augy, France) or HFD (60 kJ % fat, D12492-ssniff, Soest, Germany) for up to 9 months, 3) Towards the end of a 3-month ND or HFD, mice were injected with STF-083010 (30 mg/kg) or vehicle twice a week for 2 weeks before sacrifice. Mice were housed in a controlled environment with 12 hr light/dark cycles with water available ad libitum.
Liver tissue specimens were fixed in 10% buffered formalin, embedded in paraffin, sectioned (5 μm thick) and stained with either H&E, Masson's trichrome, MPO or TUNEL (Roche Molecular Biochemicals, Meylan, France). Specimens were evaluated by microscopy in a blinded manner by a liver pathologist.
as §3, §4
Serum AST and ALT levels were determined using a standardized UV test after activation with pyridoxal-phosphate and serum triglyceride levels were determined by standardized enzymatic colorimetric assay (Roche-Hitachi analyzer Cobas 8000, Meylan, France). Hepatic triglyceride content was measured using a Triglycerides FS 10′ kit (DiaSys, Holzheim, Germany). Cytokines were quantitatively measured by flow cytometry as described15.

[3] = BI-1−/− mice after 3 months of HFD
[4] = BI-1−/− mice, twice a week for 2 weeks towards the end of a 3-month HFD

## COc1cc2c(C)c(CC(=O)N3CCOCC3)c(=O)oc2c(C=O)c1O [MKC6688]
[1]
  liver cancer cell proliferation and apoptosis, alone and co-treated with sorafenib (confirmation of the STF-083010 data): confirmed
Xenograft HepG2 cells; data not shown
  sorafenib-mediated tumor suppression (confirmation of the STF-083010 data): confirmed

## CN1C(=O)C(Cc2c[nH]c3ccccc23)NC1=S (stereo not shown) [Necrostatin-1]
[1]; HepG2, 50 μM pre-treatment, Sorafenib 5 μM, STF 60 μM, 24 hours, FIGS. 5A and 5B
  effect of Sorafenib and SFT-083010 on cancer cell proliferation after pre-treatment: inhibit the effect

## Ac-YVAD-CMK
[1]; HepG2, YVAD 25 μM added one hour before Sorafenib, 24 hours, not more efficiently than SFT-083010, FIG. 4
  effectiveness of sorafenib in reducing liver cancer cell proliferation: enhances
HCC cell lines; HepG2, YVAD 25 μM added one hour before Sorafenib, not more efficiently than SFT-083010, FIG. 4
  effectiveness of sorafenib in inducing apoptosis: enhances

## Cc1cc(=O)oc2c(C=O)c(O)ccc12 [4μ8c]
[1]
  liver cancer cell proliferation and apoptosis, alone and co-treated with sorafenib (confirmation of the STF-083010 data): confirmed

## O=S(=O)(N=Cc1c(O)ccc2ccccc12)c1cccs1 [STF-083010, N-[(2-Hydroxy-1-naphthalenyl)methylene]-2-thiophenesulfonamide]
IRE1α RNase activity
  XBP1 mRNA levels: decrease
  sXBP1 protein: decrease
NLRP3 inflammasome
  overexpression of active caspase-11 and NLRP3: limited
[2]; STF-083010 alone, 60 μM
  viability of WT hepatocytes: compromised the viability
[2]; co-treated with TM and LPS, STF-083010 60 μM
  viability of BI-1−/− hepatocytes: improved the viability
HFD-fed BI-1−/− mice; BI-1-deficient mice, HFD
  NASH development: rescuing from NASH; also recorded: reverses the propensity
HFD-fed BI-1−/− mice; BI-1−/− HFD mice, 30 mg/kg twice a week for 2 weeks
  histological signs of inflammation and grade-3 steatosis: suppressed
HFD-fed BI-1−/− mice; BI-1−/− HFD-fed mice
  activation of caspase-1/-11 and NLRP3 proteins: counteracted the activation
  mRNA levels of NLRP3 inflammasome and pro-inflammatory response components: normalized
HFD-fed BI-1−/− mice; [3]
  collagen accumulation with cellular infiltration: prevented
  hepatic Col6a3 upregulation: significantly limited
HFD-fed BI-1−/− mice; BI-1−/− mice fed a HFD for 3 months, 30 mg/kg twice a week for 2 weeks
  liver discoloration (macroscopic): prevented
HFD-fed BI-1−/− mice; [4]
  IRE1a endoribonuclease activity in vivo: effectively counteracted
  glucose tolerance: improving
HFD-fed BI-1−/− mice; HFD-fed BI-1−/− mice, liver qPCR, FIG. 2B
  mRNA levels of metabolic master regulators (SREBP1, FASN and c-JUN): within normal mRNA levels
HFD-fed BI-1−/− mice; HFD-fed BI-1−/− mice, 30 mg/kg twice a week for 2 weeks
  lipid droplet diameter in hepatocytes: from massive to average size
HFD-fed BI-1−/− mice; HFD-fed BI-1−/− mice, 30 mg/kg twice a week for 2 weeks, FIG. 1A
  liver triglyceride content: Normalized
HFD-fed BI-1−/− mice; HFD-fed mice, both genotypes
  liver injury: protected from liver injury
HFD-fed BI-1−/− mice; HFD-fed mice, FIG. 2C
  blood glucose concentrations: normalization
HFD-fed BI-1−/− mice; ND-fed mice
  appearance of the liver: did not alter
HFD-fed BI-1−/− mice; STF-083010-treated versus untreated mice fed a HFD
  MPO-positive cells: significant decrease
HFD-fed BI-1−/− mice; WT mice fed a HFD, FIG. 1C
  increase in BI-1 mRNA levels: 15%
HFD-fed BI-1−/− mice; livers from BI-1−/− mice, HFD
  CHOP/GRP78 ratio, protein and mRNA levels: reduced
  expression of IRE1α RNase target sXBP1, protein and mRNA levels: reduced
[1]; HepG2, Huh7 and Hep3B, 60 μM alone, 24 hours, FIG. 3A
  liver cancer cell proliferation: reduces
[1]; co-treated with Sorafenib 5 μM, STF 60 μM added one hour before, 24 hours, FIG. 3A
  effectiveness of sorafenib in reducing liver cancer cell proliferation: improves their effectiveness
HCC cell lines; HCC cell lines, co-treated with Sorafenib 5 μM, STF 60 μM, FIG. 3B
  effectiveness of sorafenib in inducing apoptosis: improves their effectiveness
Xenograft HepG2 cells; STF-083010 30 mg/kg i.p. twice a week with Sorafenib 30 mg/kg i.p. daily, FIG. 6B
  sorafenib-mediated tumor suppression (tumor volume): increased
